Results from the CombiSolv-Exp solvation set (Vermeire and Green 2021).

Test: solvent given as SMILES

Cc1ccccc1
Conditions	solvation free energy, 298 K [kcal/mol]
in Brc1ccccc1	-5.15
in C1CCCCC1	-4.89
in C1CCOC1	-5.44
in C1COCCO1	-5.15
in C=CCCCCCCCCCCCCCC	-4.57
in CC1CCS(=O)(=O)C1	-4.64
in CC1COC(=O)O1	-4.43
in CC#N	-4.72
in CC(=O)N(C)C	-4.91
in CC(=O)O	-4.57
in CC(=O)c1ccccc1	-4.93
in CC(C)(C)O	-4.41
in CC(C)=O	-4.97
in CC(C)CC(C)(C)C	-4.66
in CC(C)CCCC(C)CCCC(C)CCCCC(C)CCCC(C)CCCC(C)C	-4.43
in CC(C)CCO	-4.47
in CC(C)CO	-4.37
in CC(C)O	-4.38
in CC(C)OC(C)C	-4.89
in CC(Cl)Cl	-5.32
in CC(O)CO	-3.58
in CCBr	-5.44
in CCC#N	-5.16
in CCC(C)=O	-5.07
in CCCC#N	-5.01
in CCCCC	-4.75
in CCCCC(CC)COC(=O)CCCCC(=O)OCC(CC)CCCC	-4.78
in CCCCC(CC)COC(=O)c1ccccc1C(=O)OCC(CC)CCCC	-4.55
in CCCCCC	-4.78
in CCCCCCC	-4.74
in CCCCCCCCCC	-4.66
in CCCCCCCCCCCCCCCC	-4.57
in CCCCCCCCO	-4.5
in CCCCCCO	-4.53
in CCCCCO	-4.49
in CCCCCl	-5.16
in CCCCN(C=O)CCCC	-4.91
in CCCCO	-4.52
in CCCCOC(=O)c1ccccc1C(=O)OCCCC	-4.82
in CCCCOC(C)=O	-5.5
in CCCCOCCCC	-4.88
in CCCO	-4.51
in CCN1CCCC1=O	-5.06
in CCN(CC)C(C)=O	-4.97
in CCN(CC)CC	-4.93
in CCNC(C)=O	-4.57
in CCNC=O	-4.49
in CCO	-4.46
in CCOC(=O)c1ccccc1C(=O)OCC	-4.68
in CCOC(C)=O	-5.04
in CCOCC	-5.12
in CCOCCOCCOCC	-4.96
in CCOc1ccccc1	-5.02
in CN1CCCC1=O	-4.95
in CN1CCCCC1=O	-5.02
in CN(C)C=O	-4.89
in CN(C)P(=O)(N(C)C)N(C)C	-5
in CNC(C)=O	-4.57
in CNC=O	-4.35
in CO	-4.35
in COCCO	-4.55
in COc1ccccc1	-5.04
in CS(C)=O	-4.53
in Cc1ccc(C)cc1	-5.08
in Cc1cccc(C)n1	-5.1
in Cc1cccc(O)c1	-4.63
in Cc1ccccn1	-5.12
in ClC(Cl)(Cl)Cl	-5.18
in ClC(Cl)Cl	-5.53
in ClCCCl	-5.3
in ClCCl	-5.5
in Clc1ccccc1	-5.2
in FC(F)(F)C(F)(F)C(F)(F)C(F)(F)C(F)(F)C(F)(F)F	-3.08
in Fc1c(F)c(F)c(F)c(F)c1F	-5.33
in Fc1ccccc1	-5.24
in ICI	-4.53
in Ic1ccccc1	-5.03
in NC=O	-3.02
in NCCO	-3.5
in Nc1ccccc1	-4.6
in O	-0.85
in O=C1CCCCC1	-5.13
in O=C1CCCO1	-4.72
in O=CN1CCOCC1	-4.48
in O=Cc1ccco1	-4.56
in OCCCCCO	-3.84
in OCCCCO	-3.79
in OCCCO	-3.52
in OCCO	-3.02
in OCCOCCOCCOCCO	-3.99
in OCCS	-4.12
in OCc1ccccc1	-4.53
in S=C=S	-5.33
in [2H]O[2H]	-0.99
in c1ccc2ncccc2c1	-4.82
in c1ccc(COCc2ccccc2)cc1	-4.79
in c1ccccc1	-5.32
in c1ccncc1	-5.11

ClC(Cl)=C(c1ccc(Cl)cc1)c1ccc(Cl)cc1
Conditions	solvation free energy, 298 K [kcal/mol]
in CCCCCCCCC=CCCCCCCCC(=O)OCC(COC(=O)CCCCCCCC=CCCCCCCCC)OC(=O)CCCCCCCC=CCCCCCCCC	-12.8
in CCCCCCCCO	-13.2
in O	-3.78

CC12CCC(=O)C=C1CCC1C2C(O)CC2(C)C1CCC2(O)C(=O)C(O)C(CCCCC(N)=O)C(N)=O (centres undefined)
Conditions	solvation free energy, 298 K [kcal/mol]
in C=CCCCCCCC=C	-29.8
in C=CCCCCCCCCCCCCCC	-27.4
in O	-33.7

COC(=O)c1ccc([N+](=O)[O-])cc1
Conditions	solvation free energy, 298 K [kcal/mol]
in CN(C)C=O	-10.8
in O	-6.76

C=C(C)C1CCC2(C)CCCC(=C)C2C1 (centres undefined)
Conditions	solvation free energy, 298 K [kcal/mol]
in O	-0.05

C=CC(C)(O)CCC=C(C)C (centres undefined)
Conditions	solvation free energy, 298 K [kcal/mol]
in O	-4.17

CCCCCCCCCCCCCCCCCCCCCCCCCC
Conditions	solvation free energy, 298 K [kcal/mol]
in CC(=O)N(C)C	-17.6
in CC(C)(C)O	-15.8
in CN(C)C=O	-17.8
in O	5.59

CCCCCCCCCC(C)=O
Conditions	solvation free energy, 298 K [kcal/mol]
in O	-2.15

C=C(C)C1CC=C(C=O)CC1 (centres undefined)
Conditions	solvation free energy, 298 K [kcal/mol]
in O	-4.09

OCC1OC(O)C(O)C(O)C1O (centres undefined)
Conditions	solvation free energy, 298 K [kcal/mol]
in O	-25.5

O=[N+]([O-])c1ccc(O)c([N+](=O)[O-])c1
Conditions	solvation free energy, 298 K [kcal/mol]
in CCCCCC	-8.09
in CCCCCCC	-8.08
in CCCCCCCC	-8.05
in O	-7.61

CCOC(=O)c1ccc(N)cc1
Conditions	solvation free energy, 298 K [kcal/mol]
in CC(C)CCO	-11.1
in CCCC(C)O	-11.2

CC(C)COC(=O)C(C)C
Conditions	solvation free energy, 298 K [kcal/mol]
in O	-1.69

O=C1C=CC(=O)C=C1
Conditions	solvation free energy, 298 K [kcal/mol]
in O	-6.5

O=C(O)c1cccnc1Nc1cccc(C(F)(F)F)c1
Conditions	solvation free energy, 298 K [kcal/mol]
in C1COCCO1	-17.9
in CC(C)=O	-17.7
in CCCCCCCCO	-17.1
in CCOC(C)=O	-17.3
in CCOCC	-16.5
in CN(C)C=O	-19.1
in Clc1ccccc1	-15.5
in NC=O	-16.1
in O	-12.8

COC
Conditions	solvation free energy, 298 K [kcal/mol]
in Brc1ccccc1	-2.1
in CC(C)(C)O	-2.25
in CC(C)CCO	-1.99
in CC(C)CO	-2.1
in CC(C)O	-2.13
in CCC(C)(C)O	-2.22
in CCC(C)CO	-2.05
in CCC(C)O	-2.1
in CCC(O)CC	-2.18
in CCCC(C)O	-2.05
in CCCCCC	-1.79
in CCCCCCCCO	-1.87
in CCCCCO	-1.98
in CCCCO	-2.05
in CCCO	-2.1
in CN(C)C=O	-2.13
in CO	-2.31
in COC(C)=O	-2.33
in Cc1ccc(C)cc1	-2.03
in Cc1cccc(C)c1	-2.05
in Cc1ccccc1C	-2.04
in Clc1ccccc1	-2.18
in Ic1ccccc1	-2.03
in O	-1.91

Clc1ccc(-c2cc(Cl)c(Cl)c(Cl)c2Cl)cc1
Conditions	solvation free energy, 298 K [kcal/mol]
in CCCCCCCCO	-12.8

OCC(F)(F)F
Conditions	solvation free energy, 298 K [kcal/mol]
in C1COCCO1	-5.63
in CC(=O)N(C)C	-6.81
in CN(C)C=O	-6.93
in O	-4.31

C1CCCC1
Conditions	solvation free energy, 298 K [kcal/mol]
in CC#N	-2.52
in CC(C)CCCC(C)CCCC(C)CCCCC(C)CCCC(C)CCCC(C)C	-3.23
in CC(C)O	-2.89
in CCCC#N	-2.86
in CCCCCC	-3.7
in CCCCCCCCCC	-3.46
in CCCCCCCCCCCC	-3.37
in CCCCCCCCCCCCCCCC	-3.31
in CCCCCCCO	-3.1
in CCCO	-2.89
in CCO	-2.78
in CN1CCCC1=O	-2.7
in CN1CCCCC1=O	-2.81
in CN1CCN(C)C1=O	-2.56
in CN(C)C=O	-2.73
in CO	-2.62
in COC(C)(C)C	-3.55
in ClC(Cl)(Cl)Cl	-3.78
in ClC=CCl	-3.78
in N#CCCCCC#N	-2.08
in N#Cc1ccccc1	-3
in NCCO	-1.24
in O	1.2
in O=CN1CCOCC1	-2.22
in O=Cc1ccco1	-2.41
in OC1CCCCC1	-3.02
in OCc1ccccc1	-2.7
in OCc1ccco1	-2.39
in S=C=S	-3.84
in c1ccc2ncccc2c1	-3.21

O=C=O
Conditions	solvation free energy, 298 K [kcal/mol]
in Brc1ccccc1	-0.35
in C1CCC2CCCCC2C1	-0.22
in C1CCCCC1	-0.32
in C1CCOC1	-1.12
in C1COCCO1	-1.16
in C=CCCCC	-0.56
in C=CCCCCCC	-0.45
in C=CCCCCCCCC	-0.35
in CC1COC(=O)O1	-0.75
in CC(C)(C)O	-0.41
in CC(C)=O	-1.1
in CC(C)CO	-0.37
in CC(C)O	-0.42
in CCC(C)=O	-0.98
in CCC(C)O	-0.33
in CCCCCC	-0.48
in CCCCCCC	-0.41
in CCCCCCCC	-0.35
in CCCCCCCCCC	-0.27
in CCCCCCCCCCCCCCCC	-0.12
in CCCCCCCCCCO	-0.13
in CCCCCCCCO	-0.22
in CCCCO	-0.4
in CCCCOCCO	-0.26
in CCCCOCCOCCO	-0.23
in CCCCOCCOCCOCCO	-0.48
in CCCO	-0.48
in CCO	-0.57
in CCOCCOCCO	-0.51
in CCOCCOCCOCC	-0.69
in CCc1ccccc1	-0.21
in CN1CCCC1=O	-0.82
in CN(C)C=O	-0.95
in CN(C)P(=O)(N(C)C)N(C)C	-0.9
in CO	-0.85
in COC(=O)CC#N	-0.67
in COC(C)=O	-1.13
in COCCO	-0.65
in COCCOC	-0.86
in COCCOCCO	-0.7
in COCCOCCOC	-0.84
in COCCOCCOCCO	-0.5
in COCCOCCOCCOC	-0.7
in COCCOCCOCCOCCOC	-0.77
in CS(C)=O	-0.69
in Cc1ccc(C)cc1	-0.45
in Cc1cccc(C)c1	-0.45
in Cc1ccccc1	-0.48
in Cc1ccccc1C	-0.43
in ClC(Cl)(Cl)Cl	-0.61
in ClC(Cl)Cl	-0.61
in ClCCCl	-0.78
in ClCCl	-0.68
in Clc1ccccc1	-0.5
in Nc1ccccc1	-0.44
in O	0.11
in O=C1CCCC1	-0.89
in O=C1CCCCC1	-0.79
in O=CN1CCOCC1	-0.71
in OCCCOCCCO	-0.25
in OCCO	-0.17
in OCCOCCO	-0.28
in OCc1ccccc1	-0.36
in c1ccccc1	-0.58

O=C1c2ccccc2C(=O)c2c(NCCO)cccc21
Conditions	solvation free energy, 298 K [kcal/mol]
in O	-14.2

Cc1ccccc1N(O)C(=O)c1ccc(Cl)cc1
Conditions	solvation free energy, 298 K [kcal/mol]
in O	-10.8

COc1ccc(NS(=O)(=O)c2ccc(N)cc2)nn1
Conditions	solvation free energy, 298 K [kcal/mol]
in O	-21.1

CCN(CC)c1c([N+](=O)[O-])cc(C(F)(F)F)c(N)c1[N+](=O)[O-]
Conditions	solvation free energy, 298 K [kcal/mol]
in O	-5.66
